# According to ChEMBL document CHEMBL1201862, “PubChem BioAssay data set” (2004):
#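 Exposure lasted 48 hours, with cells grown in 96-well plates and compounds tested at five concentrations. GI50: concentration for 50% inhibition of growth.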 Active and inactive are the calls of the source. Rule as the data show it: active = GI50 up to about 1.1 µM and inactive = higher.
# What was measured:
# Test in all cases: NCI tumour cell line growth inhibition, 48 h
# [1] = tested on: A549
# [2] = tested on: NCI/ADR-RES
# [3] = tested on: RPMI-8226
# [4] = tested on: MDA-N
# [5] = tested on: SK-MEL-2
# [6] = tested on: CCRF-CEM
# [7] = tested on: OVCAR-5
# [8] = tested on: KM12
# [9] = tested on: UACC-257
# [10] = tested on: SNB-75
# [11] = tested on: SK-MEL-5
# [12] = tested on: SW-620
# [13] = tested on: NCI-H226
# [14] = tested on: IGROV-1
# [15] = tested on: EKVX
# [16] = tested on: CAKI-1
# [17] = tested on: SR
# [18] = tested on: MDA-MB-231
# [19] = tested on: T47D
# [20] = tested on: OVCAR-3
# [21] = tested on: UO-31
# [22] = tested on: SK-OV-3
# [23] = tested on: MCF7
# [24] = tested on: MDA-MB-435
# [25] = tested on: HOP-92
# [26] = tested on: SF-295
# [27] = tested on: HCT-15
# [28] = tested on: TK-10
# [29] = tested on: NCI-H460
# [30] = tested on: Hs-578T
# [31] = tested on: HCC 2998
# [32] = tested on: ACHN
# [33] = tested on: SN12C
# [34] = tested on: SK-MEL-28
# [35] = tested on: M14
# [36] = tested on: BT-549
# [37] = tested on: HT-29
# [38] = tested on: HCT-116
# [39] = tested on: SNB-19
# [40] = tested on: UACC-62
# [41] = tested on: 786-0
# [42] = tested on: PC-3
# [43] = tested on: A498
# [44] = tested on: HOP-62
# [45] = tested on: RXF 393
# [46] = tested on: U-251
# [47] = tested on: SF-539
# [48] = tested on: SF-268
# [49] = tested on: OVCAR-4
# [50] = tested on: NCI-H23
# [51] = tested on: Malme-3M
# [52] = tested on: OVCAR-8
# [53] = tested on: COLO 205
# [54] = tested on: DU-145
# [55] = tested on: LOX IMVI
# [56] = tested on: NCI-H522
# [57] = tested on: HL-60
# [58] = tested on: MOLT-4
# [59] = tested on: K562
compound,measurement,setting,value
NC(=O)c1csc(C2(O)COC(CO)C2O)n1 (stereo not given),GI50,[1],> 100 µM (inactive)
same,GI50,[2],> 100 µM (inactive)
same,GI50,[3],> 100 µM (inactive)
same,GI50,[4],> 100 µM (inactive)
same,GI50,[5],> 100 µM (inactive)
same,GI50,[6],> 100 µM (inactive)
same,GI50,[7],> 100 µM (inactive)
same,GI50,[8],> 100 µM (inactive)
same,GI50,[9],> 100 µM (inactive)
same,GI50,[10],> 100 µM (inactive)
same,GI50,[11],> 100 µM (inactive)
same,GI50,[12],> 100 µM (inactive)
same,GI50,[13],> 100 µM (inactive)
same,GI50,[14],> 100 µM (inactive)
same,GI50,[15],> 100 µM (inactive)
same,GI50,[16],> 100 µM (inactive)
same,GI50,[17],> 100 µM (inactive)
same,GI50,[18],> 100 µM (inactive)
same,GI50,[19],> 100 µM (inactive)
same,GI50,[20],> 100 µM (inactive)
same,GI50,[21],> 100 µM (inactive)
same,GI50,[22],> 100 µM (inactive)
same,GI50,[23],> 100 µM (inactive)
same,GI50,[24],> 100 µM (inactive)
same,GI50,[25],> 100 µM (inactive)
same,GI50,[26],> 100 µM (inactive)
same,GI50,[27],> 100 µM
same,GI50,[28],> 100 µM (inactive)
same,GI50,[29],> 100 µM (inactive)
same,GI50,[30],> 100 µM (inactive)
same,GI50,[31],> 100 µM (inactive)
same,GI50,[32],> 100 µM (inactive)
same,GI50,[33],> 100 µM (inactive)
same,GI50,[34],> 100 µM (inactive)
same,GI50,[35],> 100 µM (inactive)
same,GI50,[36],> 100 µM (inactive)
same,GI50,[37],> 100 µM (inactive)
same,GI50,[38],> 100 µM (inactive)
same,GI50,[39],> 100 µM (inactive)
same,GI50,[40],> 100 µM (inactive)
same,GI50,[41],> 100 µM (inactive)
same,GI50,[42],> 100 µM (inactive)
same,GI50,[43],> 100 µM (inactive)
same,GI50,[44],> 100 µM (inactive)
same,GI50,[45],> 100 µM (inactive)
same,GI50,[46],> 100 µM (inactive)
same,GI50,[47],> 100 µM (inactive)
same,GI50,[48],> 100 µM (inactive)
same,GI50,[49],> 100 µM (inactive)
same,GI50,[50],> 100 µM (inactive)
same,GI50,[51],> 100 µM (inactive)
same,GI50,[52],> 100 µM (inactive)
same,GI50,[53],> 100 µM (inactive)
same,GI50,[54],> 100 µM (inactive)
same,GI50,[55],> 100 µM (inactive)
same,GI50,[56],> 100 µM (inactive)
Cc1c(OCc2cccc3ccccc23)ccc2c(O)cc(=S)oc12,GI50,[1],55.7 µM (inactive)
same,GI50,[2],38.2 µM (inactive)
same,GI50,[4],43.4 µM (inactive)
same,GI50,[5],19.4 µM (inactive)
same,GI50,[6],22.1 µM (inactive)
same,GI50,[7],54.1 µM (inactive)
same,GI50,[8],29.2 µM (inactive)
same,GI50,[9],46.3 µM (inactive)
same,GI50,[57],19.4 µM (inactive)
same,GI50,[10],40.9 µM (inactive)
same,GI50,[11],18.5 µM (inactive)
same,GI50,[12],39.2 µM (inactive)
same,GI50,[13],39.5 µM (inactive)
same,GI50,[14],42.6 µM (inactive)
same,GI50,[15],44.1 µM (inactive)
same,GI50,[58],32 µM (inactive)
same,GI50,[16],43 µM (inactive)
same,GI50,[17],28.7 µM (inactive)
same,GI50,[18],46.5 µM (inactive)
same,GI50,[19],35.2 µM (inactive)
same,GI50,[20],22.9 µM (inactive)
same,GI50,[59],36.1 µM (inactive)
same,GI50,[21],33.6 µM (inactive)
same,GI50,[23],45.7 µM (inactive)
same,GI50,[24],30.1 µM (inactive)
same,GI50,[25],27.1 µM (inactive)
same,GI50,[26],29.8 µM (inactive)
same,GI50,[27],35.3 µM
same,GI50,[28],56.5 µM (inactive)
same,GI50,[29],31.8 µM (inactive)
same,GI50,[30],34.8 µM (inactive)
same,GI50,[31],31.4 µM (inactive)
same,GI50,[32],34.2 µM (inactive)
same,GI50,[33],48.4 µM (inactive)
same,GI50,[34],43.6 µM (inactive)
same,GI50,[35],34.8 µM (inactive)
same,GI50,[36],30.9 µM (inactive)
same,GI50,[37],38.2 µM (inactive)
same,GI50,[38],26.7 µM (inactive)
same,GI50,[39],37.6 µM (inactive)
same,GI50,[40],23.1 µM (inactive)
same,GI50,[41],41.8 µM (inactive)
same,GI50,[42],35.2 µM (inactive)
same,GI50,[43],82.2 µM (inactive)
same,GI50,[44],37.3 µM (inactive)
same,GI50,[45],57.9 µM (inactive)
same,GI50,[46],35.6 µM (inactive)
same,GI50,[47],26.9 µM (inactive)
same,GI50,[48],34.1 µM (inactive)
same,GI50,[49],29 µM (inactive)
same,GI50,[50],25.7 µM (inactive)
same,GI50,[52],60.4 µM (inactive)
same,GI50,[53],31.4 µM (inactive)
same,GI50,[54],36.2 µM (inactive)
same,GI50,[55],22 µM (inactive)
same,GI50,[56],23.4 µM (inactive)
Cc1cc(NS(=O)(=O)c2ccc(NC(=O)c3ccc4[nH]c5ccccc5c(=O)c4c3)cc2)no1,GI50,[1],> 100 µM (inactive)
same,GI50,[2],> 100 µM (inactive)
same,GI50,[3],> 100 µM (inactive)
same,GI50,[4],> 100 µM (inactive)
same,GI50,[5],75.3 µM (inactive)
same,GI50,[6],40.9 µM (inactive)
same,GI50,[7],> 100 µM (inactive)
same,GI50,[8],44.1 µM (inactive)
same,GI50,[9],> 100 µM (inactive)
same,GI50,[57],> 100 µM (inactive)
same,GI50,[10],> 100 µM (inactive)
same,GI50,[11],> 100 µM (inactive)
same,GI50,[12],> 100 µM (inactive)
same,GI50,[13],> 100 µM (inactive)
same,GI50,[14],> 100 µM (inactive)
same,GI50,[15],> 100 µM (inactive)
same,GI50,[58],49.8 µM (inactive)
same,GI50,[16],> 100 µM (inactive)
same,GI50,[17],> 100 µM (inactive)
same,GI50,[18],> 100 µM (inactive)
same,GI50,[19],69.7 µM (inactive)
same,GI50,[20],> 100 µM (inactive)
same,GI50,[59],> 100 µM (inactive)
same,GI50,[21],> 100 µM (inactive)
same,GI50,[22],> 100 µM (inactive)
same,GI50,[23],> 100 µM (inactive)
same,GI50,[24],> 100 µM (inactive)
same,GI50,[25],88.3 µM (inactive)
same,GI50,[26],> 100 µM (inactive)
same,GI50,[27],> 100 µM
same,GI50,[28],> 100 µM (inactive)
same,GI50,[29],> 100 µM (inactive)
same,GI50,[30],49.9 µM (inactive)
same,GI50,[31],85.3 µM (inactive)
same,GI50,[32],> 100 µM (inactive)
same,GI50,[33],> 100 µM (inactive)
same,GI50,[34],> 100 µM (inactive)
same,GI50,[35],> 100 µM (inactive)
same,GI50,[36],> 100 µM (inactive)
same,GI50,[37],> 100 µM (inactive)
same,GI50,[38],> 100 µM (inactive)
same,GI50,[39],> 100 µM (inactive)
same,GI50,[40],> 100 µM (inactive)
same,GI50,[41],> 100 µM (inactive)
same,GI50,[42],> 100 µM (inactive)
same,GI50,[44],> 100 µM (inactive)
same,GI50,[45],45.4 µM (inactive)
same,GI50,[46],47.4 µM (inactive)
same,GI50,[47],68.1 µM (inactive)
same,GI50,[48],> 100 µM (inactive)
same,GI50,[49],> 100 µM (inactive)
same,GI50,[50],> 100 µM (inactive)
same,GI50,[51],56.9 µM (inactive)
same,GI50,[52],> 100 µM (inactive)
same,GI50,[53],> 100 µM (inactive)
same,GI50,[54],> 100 µM (inactive)
same,GI50,[55],46.5 µM (inactive)
same,GI50,[56],> 100 µM (inactive)
